Reference: patent publication EP0252983B1, “SALTS OF N-(VINYLOXIETHYL)DITHIOCARBAMIC ACID, METHOD OF OBTAINING THEREOF AND […] ON THEM” (priority 1985, dated 1987)

Key:
Geotrichum candidum Link = test: Mycelial growth inhibition on agar (contact activity); format: cell-based; details: Tabelle 12
Method: (§1) Die Prüfungen werden nach dem Verfahren zur Ermittlung der Kontaktaktivität durchgeführt. Man verwendet das in Wasser gelöste Kalium-N-(vinyloxyäthyl)dithiocarbamat, führt es in ein Nährmedium ein und vergießt auf Petri-Schalen. Nach 24 Stunden wird mit Pilzmyzelium nach einem Stichverfahren geimpft. Dann temperiert man die Schalen innerhalb von 5 Tagen bei einer zwischen 24 und 26 °C liegenden Temperatur und mißt den Durchmesser von Pilzkolonien, ermittelt den Prozentsatz der Hemmung des Myzelwachstums (S) ausgehend von Angaben am 5. Tag nach der Abbott-Formel [drawing 13] worin dc für den Durchmesser der Pilzkolonien, de für den Durchmesser von Pilzkolonien in der Schale stehen, wo ein die zu prüfenden Stoffe enthaltendes Medium vorhanden ist. Dieses Verfahren zur Ermittlung der mikrobiologischen Aktivität ist in anderen Beispielen verwendet.
(§2) Die Pilzkulturen werden auf Würzeagar gezüchtet. Ergebnisse, erhalten bei der Prüfung der fungiziden Aktivität gegen reine Kulturen von Mikroorganismen, welche Bioschädigungen hervorrufen, sind in der Tabelle 1 dargestellt.

Penicillium chrysogenum = test: as above; format: cell-based; details: Tabelle 12
Method: as §1, §2

Walrotiela subiculesa = test: as above; format: cell-based; details: Tabelle 12
Method: as §1, §2

Penicillium charlesii = test: as above; format: cell-based; details: Tabelle 12
Method: as §1, §2

[1] = tested on: Cladosporium cladosporioides; test: as above; format: cell-based; details: Tabelle 12
[2] = tested on: gewöhnlichen Mehlkäfern und Schwarmspinnerraupen; test: Antifeedant activity; format: in vivo; details: Vergleichsmuster Brestan
From the text: Die Prüfung der antiphydanten Aktivität wurde an gewöhnlichen Mehlkäfern und Schwarmspinnerraupen durchgeführt.

[3] = Storage stability (descriptive); format: physicochemical
Acremonium charticola = test: Mycelial growth inhibition on agar (contact activity); format: cell-based; details: Tabelle 12
[4] = Solubility in water (descriptive); format: physicochemical
Escherichia = test: Bactericidal activity on agar (concentration of complete growth inhibition); format: cell-based; details: % bezogen auf den Wirkstoff; am 5. Tag
Method: (§3) Geprüft wird die bakterizide Aktivität von Kalium-, Natrium-, Zink- und Kupfersalzen der N-(Vinyloxyäthyl)dithiocarbamidsäure gegen Bakterien der Gattungen Bacillus, Micrococcus, Pseudomonas, Escherichia und Xantomonas.
(§4) Man stellt wäßrige Stofflösungen verschiedener Konzentration her, die so berechnet werden, daß die Stoffkonzentration in der Petri-Schale bei der Gabe von 1 ml Lösung in das geschmolzene Nährmedium (45 bis 50 °C) zwischen 0,003 und 25 % (bezogen auf den Wirkstoff) schwankt. Nach 18 bis 24 Stunden bringt man auf die Oberfläche des Nährmediums 0,1 ml wäßrige Suspension eintägiger reiner Kulturen von Bakterien auf und verteilt sie gleichmäßig. In Kontrollschalen verteilt sich 0,1 ml Wasser über die Oberfläche des Nährmediums. Die Inkubation erfolgt bei 37 °C innerhalb von 5 Tagen. Die Wirksamkeit der Stoffe wird nach dem Auftreten des Bakterienwachstums auf der Oberfläche des Nährmediums eingeschätzt. Die Prüfergebnisse sind in der Tabelle 13 dargestellt.

Bacillus = test: as above; format: cell-based; details: % bezogen auf den Wirkstoff; am 5. Tag
Method: as §3, §4

Xantomonas = test: as above; format: cell-based; details: % bezogen auf den Wirkstoff; am 5. Tag
Method: as §3, §4

Micrococcus = test: as above; format: cell-based; details: % bezogen auf den Wirkstoff; am 5. Tag
Method: as §3, §4

Pseudomonas = test: as above; format: cell-based; details: % bezogen auf den Wirkstoff; am 5. Tag
Method: as §3, §4

[5] = Acute toxicity (LD50) in mice; format: in vivo, weißen Mäusen; details: intraabdominale Applikation an weißen Mäusen
Acremonium cowum = test: Mycelial growth inhibition on agar (contact activity); format: cell-based; details: Tabelle 12
Cladosporium resinae = test: as above; format: cell-based; details: Tabelle 12
[6] = Konzentration des Praparats 0,1 %
[7] = Konzentration des Praparats 0,2 %
[8] = Konzentration des Praparats 0,4 %
[9] = Konzentration des Praparats 0,05 %
[10] = Konzentration des Praparats 0,8 %

Substance: Kupfer-N-(vinyloxyäthyl)dithiocarbamat
- Myzelhemmung in % (Geotrichum candidum Link; [6]): 100%
- Myzelhemmung in % (Geotrichum candidum Link; [7]): 100%
- Myzelhemmung in % (Geotrichum candidum Link; [8]): 100%
- Myzelhemmung in % (Geotrichum candidum Link; [9]): 30%
- Myzelhemmung in % (Geotrichum candidum Link; [10]): 100%
- Myzelhemmung in % (Penicillium chrysogenum; [6]): 4%
- Myzelhemmung in % (Penicillium chrysogenum; [7]): 40%
- Myzelhemmung in % (Penicillium chrysogenum; [8]): 85%
- Myzelhemmung in % (Penicillium chrysogenum; [9]): 4%
- Myzelhemmung in % (Penicillium chrysogenum; [10]): 100%
- Myzelhemmung in % (Walrotiela subiculesa; [6]): 50%
- Myzelhemmung in % (Walrotiela subiculesa; [7]): 45%
- Myzelhemmung in % (Walrotiela subiculesa; [8]): 100%
- Myzelhemmung in % (Walrotiela subiculesa; [9]): 0%
- Myzelhemmung in % (Walrotiela subiculesa; [10]): 100%
- Myzelhemmung in % (Penicillium charlesii; [6]): 26%
- Myzelhemmung in % (Penicillium charlesii; [7]): 37%
- Myzelhemmung in % (Penicillium charlesii; [8]): 92%
- Myzelhemmung in % (Penicillium charlesii; [9]): 24%
- Myzelhemmung in % (Penicillium charlesii; [10]): 100%
- Myzelhemmung in % [1, 6]: 100%
- Myzelhemmung in % [1, 7]: 100%
- Myzelhemmung in % [1, 8]: 100%
- Myzelhemmung in % [1, 9]: 45%
- Myzelhemmung in % [1, 10]: 100%
- antiphydante Aktivität [2]: auf gleicher Höhe mit Brestan
- Lagerbeständigkeit [3]: lagerbeständig
- Myzelhemmung in % (Acremonium charticola; [6]): 50%
- Myzelhemmung in % (Acremonium charticola; [7]): 100%
- Myzelhemmung in % (Acremonium charticola; [8]): 100%
- Myzelhemmung in % (Acremonium charticola; [9]): 43%
- Myzelhemmung in % (Acremonium charticola; [10]): 100%
- Löslichkeit in Wasser [4]: unlöslich
- Konzentrationen, welche das Bakterienwachstum völlig (100 %) hemmen (Escherichia): 0,25%
- Konzentrationen, welche das Bakterienwachstum völlig (100 %) hemmen (Bacillus): 0,25%
- Konzentrationen, welche das Bakterienwachstum völlig (100 %) hemmen (Xantomonas): 0,25%
- Konzentrationen, welche das Bakterienwachstum völlig (100 %) hemmen (Micrococcus): 0,25%
- Konzentrationen, welche das Bakterienwachstum völlig (100 %) hemmen (Pseudomonas): 0,25%
- LD50 [5]: 267 mg/kg
- Myzelhemmung in % (Acremonium cowum; [6]): 100%
- Myzelhemmung in % (Acremonium cowum; [7]): 100%
- Myzelhemmung in % (Acremonium cowum; [8]): 100%
- Myzelhemmung in % (Acremonium cowum; [9]): 50%
- Myzelhemmung in % (Acremonium cowum; [10]): 100%
- Myzelhemmung in % (Cladosporium resinae; [6]): 43%
- Myzelhemmung in % (Cladosporium resinae; [7]): 75%
- Myzelhemmung in % (Cladosporium resinae; [8]): 100%
- Myzelhemmung in % (Cladosporium resinae; [9]): 34%
- Myzelhemmung in % (Cladosporium resinae; [10]): 100%
